Where a SMILES comes first, the peptide text is derived from it. [ ]: non-standard residue; d: D form. Trp(5-OH) = N[C@@H](Cc1c[nH]c2ccc(O)cc12)C(=O)O; Phe(4-Cl) = N[C@@H](Cc1ccc(Cl)cc1)C(=O)O; 4Pal = N[C@@H](Cc1ccncc1)C(=O)O; Ava = NCCCCC(=O)O; GABA = NCCCC(=O)O
Assays:
[1] = biological target: T1, Ephrin type-A receptor 4 [29-209] (Homo sapiens, UniProt P54764); test: Fluorescence Polarization Assay; settings: pH 7.2; 25 °C
T1 construct: 29-209
Description: For competitive binding assays, 1 mL of […] EphA4-LBD was pre-incubated with the tested compounds at various concentrations in 98 mL of PBS (pH 7.2) in 96-well black plates at roomtemperature for 10 min, after which 1 mL of 500 mMFITC-labeled EphA4 peptide was added to produce a final volume of […].

[2] = biological target: T1, Ephrin type-A receptor 4 [29-209]; test: Isothermal Titration Calorimetry (ITC); settings: pH 6.5; 27 °C
Description: (§1) The purified EphA proteins (EphA4-LBD, EphA3-LBD, and EphA2-LBD) were dissolved in 50 mM potassium phosphate buffer (pH 6.5) containing 100 mM NaCl. Compound binding was detected at 27 °C by comparing either the 2D-[15N,1H]-HSQC or 2D-[13C,1H]-HSQC spectra of 50 mMEphA4-LBD in absence and presence of compounds at 50 mM. ITC were measured with Model ITC200 from Microcal/GE Life Sciences.

[3] = biological target: T2, Ephrin type-A receptor 3 [29-207] (Homo sapiens, UniProt P29320); test: Isothermal Titration Calorimetry (ITC); settings: pH 6.5; 27 °C
T2 construct: 29-207
T2 sequence (P29320 whole entry): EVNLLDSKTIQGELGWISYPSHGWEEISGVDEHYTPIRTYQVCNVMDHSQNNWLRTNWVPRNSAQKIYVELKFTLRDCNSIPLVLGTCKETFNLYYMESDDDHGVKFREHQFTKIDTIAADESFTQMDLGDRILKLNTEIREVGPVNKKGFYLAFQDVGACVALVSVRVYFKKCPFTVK
Description: as §1

T1 sequence (P54764 29-209): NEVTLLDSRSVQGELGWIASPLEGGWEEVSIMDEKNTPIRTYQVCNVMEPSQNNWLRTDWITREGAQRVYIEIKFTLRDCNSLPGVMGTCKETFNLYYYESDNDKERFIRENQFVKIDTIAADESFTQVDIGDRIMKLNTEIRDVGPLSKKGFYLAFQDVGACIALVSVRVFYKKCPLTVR

Ki [1] [nM]	Kd [2] [nM]	Kd [3] [nM]	Structure (SMILES)
7670	–	–	NCCCC(=O)N[C@@H](Cc1c[nH]c2ccc(O)cc12)C(=O)N[C@@H](Cc1ccc(Cl)cc1)C(=O)N[C@@H](Cc1ccncc1)C(=O)NCCc1cccc2ccccc12 [123C12]
2140	1200	–	NCCC(=O)N[C@@H](Cc1c[nH]c2ccc(O)cc12)C(=O)N[C@@H](Cc1ccc(Cl)cc1)C(=O)N[C@@H](Cc1ccncc1)C(=O)N[C@H](Cc1c[nH]c2ccccc12)C(N)=O [EphA4-LBC inhibitor, Compound 22]
960	–	–	NCCCC(=O)N[C@@H](Cc1c[nH]c2ccc(O)cc12)C(=O)N[C@@H](Cc1ccc(Cl)cc1)C(=O)N[C@@H](Cc1ccncc1)C(=O)N[C@H](Cc1c[nH]c2ccccc12)C(N)=O [120H10] (H-[GABA][Trp(5-OH)][Phe(4-Cl)][4Pal][dW]-NH2)
3140	–	–	NCCCC(=O)N[C@@H](Cc1c[nH]c2ccc(O)cc12)C(=O)N[C@@H](Cc1ccc(Cl)cc1)C(=O)N[C@@H](Cc1ccncc1)C(=O)NCCc1c[nH]c2ccc(Cl)cc12 [123C6]
1590	1100	–	NCCCC(=O)N[C@@H](Cc1c[nH]c2ccc(O)cc12)C(=O)N[C@@H](Cc1ccc(Cl)cc1)C(=O)N[C@@H](Cc1ccncc1)C(=O)NCCc1c[nH]c2ccccc12 [123C2]
–	–	4550	COc1ccc2[nH]cc(CCNC(=O)[C@H](Cc3ccncc3)NC(=O)[C@H](Cc3ccc(Cl)cc3)NC(=O)[C@H](Cc3c[nH]c4ccc(O)cc34)NC(=O)CCCN)c2c1 [123C4]
2220	–	–	NCCCC(=O)N[C@@H](Cc1c[nH]c2ccc(O)cc12)C(=O)N[C@@H](Cc1ccc(Cl)cc1)C(=O)N[C@@H](Cc1ccncc1)C(=O)NCCc1c[nH]c2ccc(F)cc12 [123C3]
2570	2200	–	NCCCC(=O)N[C@@H](Cc1c[nH]c2ccc(O)cc12)C(=O)N[C@@H](Cc1ccc(Cl)cc1)C(=O)N[C@@H](Cc1ccncc1)C(=O)NCCc1c[nH]c2ccc(O)cc12 [123C5]
> 100000	–	–	CC(C)(N)C(C)(C)C(=O)N[C@@H](Cc1c[nH]c2ccc(O)cc12)C(=O)N[C@@H](Cc1ccc(Cl)cc1)C(=O)N[C@@H](Cc1ccncc1)C(=O)N[C@H](Cc1ccncc1)C(N)=O [120G2]
3040	–	–	NCCCCC(=O)N[C@@H](Cc1c[nH]c2ccc(O)cc12)C(=O)N[C@@H](Cc1ccc(Cl)cc1)C(=O)N[C@@H](Cc1ccncc1)C(=O)N[C@H](Cc1c[nH]c2ccccc12)C(N)=O [123B1] (H-[Ava][Trp(5-OH)][Phe(4-Cl)][4Pal][dW]-NH2)
14000	–	–	NCCC(=O)N[C@@H](Cc1c[nH]c2ccc(O)cc12)C(=O)N[C@@H](Cc1ccc(Cl)cc1)C(=O)N[C@@H](Cc1ccncc1)C(=O)N[C@H](Cc1ccncc1)C(N)=O [120G1]
1590	540	–	COc1ccc2c(CCNC(=O)[C@H](Cc3ccncc3)NC(=O)[C@H](Cc3ccc(Cl)cc3)NC(=O)[C@H](Cc3c[nH]c4ccc(O)cc34)NC(=O)CCCN)c[nH]c2c1 [123C7]

From BindingDB's records for doi:10.1016/j.chembiol.2017.01.006 (Sanford Burnham Prebys Medical Discovery Institute, 2017)
